Values after ≈ are worked out from the molar mass of the structure shown. Where two headings read alike, the source gives them in different places.
What was measured:
Assay in all cases: In vitro antibacterial activity, microtitration dilution method (MIC)
Format in all cases: cell-based
[1] = test system: Enterobacter cloacae MA 2646; details: MA2646, read-out: Minimal Inhibitory Concentration (MIC)
From the text: (§1) The compounds of the invention display antibacterial activity when tested by the microtitration dilution method as described in Heifetz, et al, Antimicr. Agents & Chemoth., 6, 124 (1974), which is incorporated herein by reference.
(§2) By use of the above referenced method, the followed minimum inhibitory concentration values (MICs in μg/ml) were obtained for representative compounds of the invention.

Escherichia coli Vogel = details: read-out: Minimal Inhibitory Concentration (MIC)
From the text: as §1, §2

[2] = test system: Klebsiella pneumoniae MGH-2; details: MGH2, read-out: Minimal Inhibitory Concentration (MIC)
From the text: as §1, §2

Proteus rettgeri M 1771 = details: Providencia rettgeri, M1771, read-out: Minimal Inhibitory Concentration (MIC)
From the text: as §1, §2

[3] = test system: Pseudomonas aeruginosa UI-18; details: UI18, read-out: Minimal Inhibitory Concentration (MIC)
From the text: as §1, §2

[4] = test system: Streptococcus pneumoniae SV-1; details: SV1, read-out: Minimal Inhibitory Concentration (MIC)
From the text: as §1, §2

[5] = test system: Streptococcus pyogenes C-203; details: C203, read-out: Minimal Inhibitory Concentration (MIC)
From the text: as §1, §2

[6] = test system: Staphylococcus aureus H 228
From the text: (§3) Agents & Chemoth., 6, 124 (1974), which is incorporated herein by reference.

[7] = test system: Staphylococcus aureus UC-76
From the text: as §3

[8] = test system: Streptococcus faecalis MGH-2; details: Enterococcus faecalis
From the text: as §3

[9] = MGH2, Streptococcus faecalis MGH-2, read-out: Minimal Inhibitory Concentration (MIC)
[10] = H228, Staphylococcus aureus H 228, read-out: Minimal Inhibitory Concentration (MIC)
[11] = Staphylococcus aureus, UC76, read-out: Minimal Inhibitory Concentration (MIC)

Row | SMILES | MIC [1] | MIC (Escherichia coli Vogel) | MIC [2] | MIC (Proteus rettgeri M 1771) | MIC [3] | MIC [4] | MIC [5] | MIC ([6]; Staphylococcus aureus, H228, read-out: Minimal Inhibitory Concentration (MIC)) | MIC ([7]; UC76, Staphylococcus aureus UC-76, read-out: Minimal Inhibitory Concentration (MIC)) | MIC [8, 9] | MIC [6, 10] | MIC [7, 11] | MIC ([8]; MGH2, read-out: Minimal Inhibitory Concentration (MIC))
1 | CNn1cc(C(=O)O)c(=O)c2cc(F)c(N3CCC(N)C3)c(F)c21 (stereo not shown) [Ex. 2, 7-(3-Amino-1-pyrrolidinyl)-6,8-difluoro-1,4-dihydro-1-methylamino-4-oxo-3-quinolinecarboxylic Acid] | 0.8 µg/mL (≈ 2.36 µM) | 0.2 µg/mL (≈ 0.591 µM) | 0.2 µg/mL (≈ 0.591 µM) | 0.4 µg/mL (≈ 1.18 µM) | 0.2 µg/mL (≈ 0.591 µM) | 6.3 µg/mL (≈ 18.6 µM) | 0.8 µg/mL (≈ 2.36 µM) | 3.1 µg/mL (≈ 9.16 µM) | 0.4 µg/mL (≈ 1.18 µM) | 12.5 µg/mL (≈ 36.9 µM) |  |  | 
2 | CCNCC1CCN(c2c(F)cc3c(=O)c(C(=O)O)cn(NC)c3c2F)C1 (stereo not shown) [Ex. 3, 7-[3-[(Ethylamino)methyl]-1-pyrrolidinyl]-6,8-difluoro-1,4-dihydro-1-methylamino-4-oxo-3-quinolinecarboxylic acid] | 0.2 µg/mL (≈ 0.526 µM) | 0.2 µg/mL (≈ 0.526 µM) | 0.2 µg/mL (≈ 0.526 µM) | 1.6 µg/mL (≈ 4.21 µM) | 0.8 µg/mL (≈ 2.1 µM) | 0.1 µg/mL (≈ 0.263 µM) | 0.2 µg/mL (≈ 0.526 µM) |  |  | 0.4 µg/mL (≈ 1.05 µM) | 0.4 µg/mL (≈ 1.05 µM) | 0.2 µg/mL (≈ 0.526 µM) | 
3 | CNn1cc(C(=O)O)c(=O)c2cc(F)c(N3CCC(CN)C3)c(F)c21 (stereo not shown) [Ex. 4, 7-[3-(Aminomethyl)-1-pyrrolidinyl]-6,8-difluoro-1,4-dihydro-1-methylamino-4-oxo-3-quinolinecarboxylic acid] | 1.6 µg/mL (≈ 4.54 µM) | 1.6 µg/mL (≈ 4.54 µM) | 1.6 µg/mL (≈ 4.54 µM) | 1.6 µg/mL (≈ 4.54 µM) | 1.6 µg/mL (≈ 4.54 µM) | 0.8 µg/mL (≈ 2.27 µM) | 0.2 µg/mL (≈ 0.568 µM) |  |  |  | 1.6 µg/mL (≈ 4.54 µM) | 0.2 µg/mL (≈ 0.568 µM) | 0.8 µg/mL (≈ 2.27 µM)
4 | CCNCC1CCN(c2cc3c(cc2F)c(=O)c(C(=O)O)cn3NC)C1 (stereo not shown) [Ex. 1, 7-[3-[(Ethylamino)methyl]-1-pyrrolidinyl]-6-fluoro-1-methylamino-1,4-dihydro-4-oxo-3-quinolinecarboxylic Acid] | 6.3 µg/mL (≈ 17.4 µM) | 12.5 µg/mL (≈ 34.5 µM) | 6.3 µg/mL (≈ 17.4 µM) | 25 µg/mL (≈ 69 µM) | 25 µg/mL (≈ 69 µM) | 3.1 µg/mL (≈ 8.55 µM) | 0.4 µg/mL (≈ 1.1 µM) |  |  | 6.3 µg/mL (≈ 17.4 µM) | 12.5 µg/mL (≈ 34.5 µM) | 0.2 µg/mL (≈ 0.552 µM) | 

From patent publication US4604401A, “Antibacterial agents III” (Warner-Lambert Company, priority 1984, dated 1986)
